Measured values: patent publication US7556938B1, “Nucleic acids encoding potassium channel interactors” (Millennium Pharmaceuticals, Inc., priority 1998, dated 2009)

What was measured:
[1] = test system: A-current in cultured primary cerebellar granule neurons; assay: Arachidonic acid effects on the A-current in cultured primary cerebellar granule neurons; type: cell-based; details: 10 μM arachidonic acid, TEA (10 mM) applied, mean±SEM
Experimental: The arachidonic acid effects on the A-current were also investigated in a neuronal system (cultured primary cerebellar granule neurons) where both Kv4 and KChIPs are present. TEA (10 mM) was applied to block a small sustained outward component. Inactivation time constants of the A current in the absence and presence of 10 μM arachidonic acid were 44±5 ms and 21±3 ms (mean±SEM), respectively. The corresponding peak amplitude was reduced from 2.0±0.6 nA to 1.2±0.4 nA.

[2] = molecular target: T1, interaction between N-terminal domain of Kv4.3 and KChIP1 (Rattus norvegicus, UniProt Q62897+Q8R426); assay: Biosensor (Biacore) in vitro binding of KChIP1 to GST-Kv4.3N with and without arachidonic acid; details: 10 μM arachidonic acid, 1 μM KChIP1
T1 construct: The intracellular N-terminal domain of Kv4.3 was expressed as a GST fusion protein (GST-Kv4.3N); GST (N, cleaved yes); made in house; host or cells: E. coli
T1 sequence (Q62897 1-182 limits assumed): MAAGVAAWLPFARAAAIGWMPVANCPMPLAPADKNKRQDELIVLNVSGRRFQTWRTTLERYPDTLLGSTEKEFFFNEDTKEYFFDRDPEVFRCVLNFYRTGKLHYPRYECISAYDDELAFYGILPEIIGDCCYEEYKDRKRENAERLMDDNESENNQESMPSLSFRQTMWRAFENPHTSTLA
T1 sequence (Q8R426 1-216 isoform Q8R426-2): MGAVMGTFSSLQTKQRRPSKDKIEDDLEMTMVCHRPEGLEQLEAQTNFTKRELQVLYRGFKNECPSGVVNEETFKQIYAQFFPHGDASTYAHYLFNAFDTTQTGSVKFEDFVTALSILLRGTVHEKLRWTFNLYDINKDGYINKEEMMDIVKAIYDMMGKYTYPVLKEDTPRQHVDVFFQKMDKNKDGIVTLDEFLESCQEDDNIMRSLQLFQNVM
Text: The N-terminal domain of rat Kv4.3 was expressed as a GST fusion (GST-Kv4.3N) and purified from E. coli essentially following protocols provided by Amersham Pharmacia Biotech (Piscataway, N.J.). Recombinant rat KChIP1 protein was first expressed and purified as a GST-fusion, then the GST moiety was cleaved using PreScission protease (Amersham Pharmacia Biotech) to give rise to the free KChIP1 protein. Both GST-Kv4.3N and KChIP proteins were >95% pure as estimated by coomassie stain of denaturing gels. In vitro binding assays were performed using a Biacore 3000 from Biacore AB in Uppsala, Sweden. The experiments were performed in phosphate buffered saline (PBS), pH 7.4, with 1 mM CaCl2 and 0.05% polysorbate P-20. Anti-GST antibody (Biacore AB) was coupled to 3 flowcells of a CM-5 chip (Biacore AB) at a level of 2000 resonance units (RUs) using amine coupling. […]
To test the hypothesis that arachidonic acid acts by interfering with the binding between Kv4 and KChIPs, the surface plasmon resonance measurement (Biosensor) was first used to monitor the association and dissociation phases of Kv4-KChIP interaction in the presence and absence of arachidonic acid. The intracellular N-terminal domain of Kv4.3 was expressed as a GST fusion protein (GST-Kv4.3N) and immobilized to the surface of a Biosensor chip. […]

[3] = test system: Kv4 α subunits; details: in oocytes; Villarroel and Schwarz (1996); read-out: IC50 of arachidonic acid on Kv4 α subunits; cited from earlier work

CCCCC/C=C\C/C=C\C/C=C\C/C=C\CCCC(=O)O [arachidonic acid]
Inactivation time constant of the A current [1]: 21 ± 3 ms
peak amplitude of the A current [1]: 1.2±0.4 nA
effect on association and dissociation phase of KChIP1 binding to GST-Kv4.3N [2]: a qualitative difference aws not observed
IC50 [3]: ~8 µM
